“Also recorded” adds a separate entry of the source.
Key:
neuropathic rats [1] = assay: EEG power spectra (delta, theta, sigma bands) during NREM and REM sleep; format: in vivo, male Wistar rats
Description: (§1) EEG and EMG recording. Six days after surgery (16 days post-SNI), mechanical allodynia was assessed via von Frey test, and EEG/EMG was recorded for a period of 6 h (from 6 AM to 12 PM). The treatments (described below) were performed at 6:00 A.M., right after the recording had started. […] Consecutive 10 s epochs were subjected to a fast Fourier transform (FFT), and EEG power spectra density was computed in the frequency range of 0-64 Hz^13.
To determine the variations in power spectra induced by the pharmacological treatment of CBD and antagonists, the power densities were summed up over the frequency band of 0-25 Hz (total power). The data were then standardized by expressing all power spectral densities at the different 0.5 Hz bin frequency ranges (delta, theta, and sigma) as a percentage relative to the total power of the same epoch^16. Frequency ranges were 0-3.5Hz for delta, 4-8.5Hz for theta, and 11-14 Hz for sigma bands. The sum of power densities over a frequency band following treatments were expressed as the percentage difference from that in or naïve+veh or NP+vehicle group in statistical analysis. In the experiments with WAY 100635 the NP+CBD was compared with NP+vehicle, NP+WAY, NP+WAY+CBD.
To assess whether CBD (20 mg/kg) might affect the microarchitecture during the sleep, the intensity Delta (0.5-4 Hz), Theta ([…]) and Sigma (10-15 Hz) waves were measured during 6 hours of light phase in the 3 groups of rats (Naïve, SNI+VEH and SNI+CBD 20mg/kg). Data were converted as a percentage of variation vs. naive animals and One-way ANOVA was performed on the power of delta, theta and sigma waves during NREM and REN sleep.
To assess whether the 5-HT1A selective antagonist WAY 100635 (2 mg/kg) might reverse the effect of CBD (20 mg/kg) in the enhancement of power density (Delta, Theta, and Sigma waves) during sleep, the power spectra were measured for 6 hours in four groups of rats. The first group were NP rats treated with CBD vehicle (n=8), the second group were NP rats treated with WAY 100635 alone at 2 mg/kg (n=6), the third group were NP rats treated with WAY 100635 (2 mg/kg)+CBD (20 mg/kg; n=6), and the fourth group were NP treated with CBD at 20 mg/kg (n=8). Data were converted as a percentage of variation vs NP animals treated with vehicle.

neuropathic rats [2] = assay: EEG/EMG recording of wakefulness, NREM and REM sleep in neuropathic rats; format: in vivo, male Wistar rats; conditions: for total NREM sleep, relative to NP rats treated with vehicle / total time of wakefulness, relative to NP rats treated with vehicle / REM sleep (total time), relative to NP rats treated with vehicle: WAY 100635 2 mg/kg; for block of the hypnotic effects of CBD (20 mg/kg): WAY 100635 2 mg/kg i.p. 10 min before CBD
Description: Animals. The experiments were performed on male Wistar rats weighing 250 g (six weeks). All animals were housed in standardized animal facilities under a 12 h light/dark cycle (lights on at 7 AM) with ad libitum access to food and water. All surgeries and experimental procedures were performed during the light cycle. Experimental protocols were approved by the Animal Ethics Committee of the local institutional committee for animal use and care (McGill University, Qc, Canada). These protocols follow ethical guidelines for investigation of experimental pain in conscious animals of the IASP, the Canadian Institute of Health Research guidelines for animal care and scientific use.
Spared nerve injury (SNI). SNI was performed according to the method of Decosterd and Woolf^35. Rats were deeply anaesthetized with isofluorane (5%), anaesthesia was confirmed by the absence of a nociceptive reflex reaction to a paw pinch. The sciatic nerve was exposed at mid-thigh level distal to the trifurcation and freed of connective tissue; the three peripheral branches (sural, common peroneal, and tibial nerves) of the sciatic nerve were exposed without stretching nerve structures. Both tibial and common peroneal nerves were ligated and transected together. Carprofen (5 mg/kg) was administrated subcutaneously pre-surgery as well as three days every 24 hours post-surgery as analgesic. After SNI, each rat was housed in its home cage for 15 days until the neuropathy is developed.
EEG/EMG Implantation. Neuropathic rats (10 days after surgery) and naïve rats were placed in a stereotaxic frame following isoflurane-induced anesthesia (5%). Anaesthesia was confirmed by the absence of a nociceptive reflex reaction to a paw pinch. For EEG monitoring, three stainless-steel epidural electrodes were positioned through 1.5 mm burr holes: one over the parietal cortex on each side, and the third (as a reference) in the right prefrontal cortex. In rats, their respective locations relative to bregma were −2 mm anteroposterior (AP) and −3 mm lateral (L), −7 mm AP and −3 mm L, and −4.5 mm AP and +3 mm L, according to Paxinos and Watson. For EMG monitoring, three flexible stainless-steel wire electrodes, silicon insulation removed at the terminal 3-4 mm, were implanted into the neck muscles (two bilaterally and one in the middle). Wires were fused with the electrodes and the connectors were fixed to the skull with dental acrylic (Coltene/Whaledent). Carprofen (10mg/kg) was administrated subcutaneously pre-surgery as well as three days every 24 hours post-surgically as analgesic. Each rat was single-caged post-surgery and allowed to recover for the next 5 days^13. 24 hours after surgery, the rats were placed in the recording chamber and connected to a flexible 6-flat wire (3M Scotchflex™) in a freely moving manner for several hours during the subsequent 5 days. No recordings were performed, but tolerance to the cable and sleep behavior were observed. All rats from a home cage were also grouped for one hour each day for socialization to circumvent anxious-depressive-like behavior induced by social isolation^13.
Study design for EEG and EMG assessment. […] […] In another cohort of rats rimonabant (1 mg/kg) was also injected i.p. at 6 A.M. in neuropathic rats.
as §1
Analysis of EEG and EMG data. The three classical vigilance states as described in the rat were discriminated on the basis of the cortical EEG and neck EMG activities. […]

rats = conditions: rat, in vivo; cited from earlier work
[3] = 6 h EEG/EMG, i.p., CBD 20 mg/kg
[4] = 6 h EEG/EMG, i.p., CBD 20 mg/kg, listed as WAY
[5] = 6 h EEG/EMG, i.p., CBD 20 mg/kg, rimonabant 1 mg/kg
[6] = NP rats, 6 h EEG/EMG, i.p., CBD 20 mg/kg, rimonabant 1 mg/kg

COc1ccccc1N1CCN(CCN(C(=O)C2CCCCC2)c2ccccn2)CC1 [WAY 100635]
power of Delta waves during REM sleep, between groups (ANOVA) (neuropathic rats [1]; NP rats, 6 h, CBD 20 mg/kg, WAY 100635 2 mg/kg): no statistically significant differences between groups | block of the theta power increase induced by CBD (20 mg/kg) on NREM sleep (neuropathic rats [1]; NP rats, WAY 100635 2 mg/kg, p<0.0003): able to block the theta power increase induced by CBD | block of the effects of CBD (20 mg/kg) on Sigma power during REM sleep (neuropathic rats [1]; NP rats, WAY 100635 2 mg/kg, p<0.0019): blocks the effects of CBD | block of the Delta power increase induced by CBD (20 mg/kg) on NREM sleep (neuropathic rats [1]; NP rats, WAY 100635 2 mg/kg, p<0.0048): able to block the Delta power increase induced by CBD | block of the positive effect of CBD (20 mg/kg) on theta waves during REM sleep (neuropathic rats [1]; NP rats, WAY 100635 2 mg/kg, p<0.0061): able to block the positive effect of CBD | intensity of Sigma waves during NREM sleep, relative to NP animals administered CBD 20 mg/kg (neuropathic rats [1]; WAY 100635 2 mg/kg alone (p<0.038) or WAY 100635+CBD (p<0.0006)): differences were detected | REM sleep, compared to NP rats treated with CBD 20 mg/kg (neuropathic rats [2]; 6 h EEG/EMG, WAY 100635 alone i.p.): decrease in REM sleep | total NREM sleep, relative to NP rats treated with vehicle (neuropathic rats [2]; [3]): statistically reduced the time spent NREM sleep | total time of wakefulness, relative to NP rats treated with vehicle (neuropathic rats [2]; [3]): increase in wakefulness | total NREM sleep, relative to NP rats treated with vehicle (neuropathic rats [2]; [4]): impaired NREM sleep | total time of wakefulness, relative to NP rats treated with vehicle (neuropathic rats [2]; [4]): increased wakefulness | REM sleep (total time), relative to NP rats treated with vehicle (neuropathic rats [2]; [5]): no statistical difference was detected | total time of wakefulness, relative to NP rats treated with CBD 20 mg/kg (neuropathic rats [2]; 6 h EEG/EMG, i.p., WAY 100635 2 mg/kg alone or 10 min before CBD 20 mg/kg): increase in wakefulness | block of the positive effect of CBD (20 mg/kg) on REM sleep (neuropathic rats [2]; NP rats, 6 h EEG/EMG, WAY 100635 (1 mg/kg) as printed, before CBD, p<0.001): able to block the positive effect of CBD | block of the hypnotic effects of CBD (20 mg/kg) (neuropathic rats [2]; NP rats): fully prevented | block of the hypnotic effects of CBD (20 mg/kg) (neuropathic rats [2]; NP rats, listed as WAY100635): Blocks the Hypnotic Effects of CBD

Cc1c(C(=O)NN2CCCCC2)nn(-c2ccc(Cl)cc2Cl)c1-c1ccc(Cl)cc1 [Rimonabant]
time spent in NREM sleep (rats): reducing the time spent in NREM sleep and REM sleep | time spent in REM sleep (rats): reducing the time spent in NREM sleep and REM sleep | time spent in wakefulness (rats): dose-dependently increased the time spent in wakefulness | REM sleep (total time), relative to NP rats treated with vehicle (neuropathic rats [2]; [5]): Decrease the Time Spent in REM; also recorded: difference | REM sleep (total time), relative to NP rats treated with vehicle (neuropathic rats [2]; 6 h EEG/EMG, i.p., CBD 20 mg/kg, rimonabant 1 mg/kg, listed as rimonabant): reduction of REM sleep time; also recorded: decreases REM sleep | REM sleep, relative to naïve animals treated with vehicle (neuropathic rats [2]; [6]): difference | wakefulness, relative to naïve animals treated with vehicle (neuropathic rats [2]; [6]): difference | reversal of sleep perturbations induced by neuropathic pain (sleep-wake cycle) (neuropathic rats [2]; NP rats, i.p., CBD 20 mg/kg, rimonabant 1 mg/kg): Does not Reverse the Sleep Perturbations

Reference: patent publication US20230172874A1, “USE OF CANNABIDIOL FOR THE TREATMENT OF INSOMNIA ASSOCIATED TO PAIN” (priority 2021, published 2023)
